Measurements published in the NIST ThermoML archive (doi:10.1016/j.tca.2008.06.010).
Where “and” joins values, the source holds several entries; their conditions need not be identical. Equal entries are not always repeated. ± gives the expanded uncertainty stated by the source.

How the values were obtained:
[1] = molar heat capacity at constant pressure; conditions: 101.33 kPa, Crystal
[2] = 293 K; 101.33 kPa; Crystal; X-ray diffraction

[Nb+5].[Nb+5].[O-2].[O-2].[O-2].[O-2].[O-2].[O-2].[O-2].[Sr+2].[Sr+2] [niobium strontium oxide (Nb2Sr2O7)]
molar heat capacity at constant pressure, [1]
Conditions | Relaxation time | Small sample (50 mg) DSC
2 K | 0.006 ± 0.001 J/K/mol | –
2.1 K | 0.005 ± 0.001 J/K/mol | –
2.2 K | 0.006 ± 0.001 J/K/mol | –
2.4 K | 0.007 ± 0.001 J/K/mol | –
2.5 K | 0.008 ± 0.001 J/K/mol | –
2.7 K | 0.009 ± 0.001 J/K/mol | –
2.9 K | 0.01 ± 0.001 J/K/mol | –
3.1 K | 0.012 ± 0.001 J/K/mol | –
3.2 K | 0.015 ± 0.001 J/K/mol | –
3.5 K | 0.017 ± 0.001 J/K/mol | –
3.7 K | 0.02 ± 0.001 J/K/mol | –
3.9 K | 0.024 ± 0.001 J/K/mol | –
4.2 K | 0.03 ± 0.001 J/K/mol | –
4.4 K | 0.035 ± 0.001 J/K/mol | –
4.7 K | 0.043 ± 0.001 J/K/mol | –
5 K | 0.053 ± 0.001 J/K/mol | –
5.4 K | 0.064 ± 0.002 J/K/mol | –
5.7 K | 0.079 ± 0.002 J/K/mol | –
6.1 K | 0.097 ± 0.002 J/K/mol | –
6.5 K | 0.12 ± 0.01 J/K/mol | –
6.9 K | 0.15 ± 0.01 J/K/mol | –
7.4 K | 0.19 ± 0.01 J/K/mol | –
7.9 K | 0.23 ± 0.01 J/K/mol | –
8.4 K | 0.28 ± 0.01 J/K/mol | –
8.9 K | 0.35 ± 0.01 J/K/mol | –
9.5 K | 0.43 ± 0.01 J/K/mol | –
10.1 K | 0.53 ± 0.01 J/K/mol | –
10.8 K | 0.65 ± 0.01 J/K/mol | –
11.5 K | 0.8 ± 0.02 J/K/mol | –
12.2 K | 0.99 ± 0.02 J/K/mol | –
13 K | 1.21 ± 0.03 J/K/mol | –
13.9 K | 1.48 ± 0.03 J/K/mol | –
14.8 K | 1.82 ± 0.04 J/K/mol | –
15.7 K | 2.2 ± 0.05 J/K/mol | –
16.7 K | 2.69 ± 0.06 J/K/mol | –
17.8 K | 3.28 ± 0.07 J/K/mol | –
19 K | 3.97 ± 0.08 J/K/mol | –
20.2 K | 4.78 ± 0.1 J/K/mol | –
21.5 K | 5.72 ± 0.12 J/K/mol | –
22.9 K | 6.83 ± 0.14 J/K/mol | –
24.3 K | 8.09 ± 0.16 J/K/mol | –
25.9 K | 9.56 ± 0.19 J/K/mol | –
27.6 K | 11.22 ± 0.23 J/K/mol | –
29.3 K | 13.09 ± 0.26 J/K/mol | –
31.2 K | 15.16 ± 0.3 J/K/mol | –
33.3 K | 17.47 ± 0.35 J/K/mol | –
35.4 K | 20.05 ± 0.4 J/K/mol | –
37.7 K | 22.84 ± 0.46 J/K/mol | –
40.2 K | 25.86 ± 0.52 J/K/mol | –
42.7 K | 29.26 ± 0.59 J/K/mol | –
45.5 K | 32.91 ± 0.66 J/K/mol | –
48.4 K | 36.66 ± 0.73 J/K/mol | –
51.6 K | 40.57 ± 0.81 J/K/mol | –
54.9 K | 44.95 ± 0.9 J/K/mol | –
58.4 K | 49.55 ± 0.99 J/K/mol | –
62.2 K | 54.39 ± 1.1 J/K/mol | –
66.2 K | 59.43 ± 1.2 J/K/mol | –
70.4 K | 64.72 ± 1.3 J/K/mol | –
75 K | 70.3 ± 1.4 J/K/mol | –
79.8 K | 76.11 ± 1.5 J/K/mol | –
84.9 K | 82.05 ± 1.6 J/K/mol | –
90.4 K | 88.37 ± 1.8 J/K/mol | –
96.2 K | 95.08 ± 1.9 J/K/mol | –
102.4 K | 101.57 ± 2 J/K/mol | –
115.9 K | 115.3 ± 2.3 J/K/mol | –
123.4 K | 122.51 ± 2.5 J/K/mol | –
131.3 K | 129.76 ± 2.6 J/K/mol | –
139.7 K | 137.01 ± 2.7 J/K/mol | –
148.6 K | 144.41 ± 2.9 J/K/mol | –
158.2 K | 152.04 ± 3 J/K/mol | –
168.3 K | 158.82 ± 3.2 J/K/mol | –
179 K | 166.7 ± 3.3 J/K/mol | –
190.5 K | 173.8 ± 3.5 J/K/mol | –
201.5 K | 179.2 ± 3.6 J/K/mol | –
203 K | 180.19 ± 3.6 J/K/mol | –
203.6 K | 180.24 ± 3.6 J/K/mol | –
205.7 K | 181.22 ± 3.6 J/K/mol | –
207.7 K | 181.67 ± 3.6 J/K/mol | –
209.7 K | 183.21 ± 3.7 J/K/mol | –
211.7 K | 184.53 ± 3.7 J/K/mol | –
213.8 K | 185.64 ± 3.7 J/K/mol | –
215.8 K | 187.13 ± 3.7 J/K/mol | –
217.8 K | 188.51 ± 3.8 J/K/mol | –
219.8 K | 190.01 ± 3.8 J/K/mol | –
221.8 K | 191.02 ± 3.8 J/K/mol | –
223.8 K | 191.53 ± 3.8 J/K/mol | –
225.9 K | 192.06 ± 3.8 J/K/mol | –
227.9 K | 193.45 ± 3.9 J/K/mol | –
229.9 K | 193.04 ± 3.9 J/K/mol | –
231.9 K | 193.63 ± 3.9 J/K/mol | –
233.9 K | 194.26 ± 3.9 J/K/mol | –
235.9 K | 196.53 ± 3.9 J/K/mol | –
238 K | 196.42 ± 3.9 J/K/mol | –
240 K | 197.53 ± 4 J/K/mol | –
242 K | 197.69 ± 4 J/K/mol | –
244 K | 197.75 ± 4 J/K/mol | –
246.1 K | 198.29 ± 4 J/K/mol | –
248.1 K | 200 ± 4 J/K/mol | –
250.1 K | 200.61 ± 4 J/K/mol | –
252.1 K | 201.6 ± 4 J/K/mol | –
254.1 K | 202.35 ± 4 J/K/mol | –
256.1 K | 203.13 ± 4.1 J/K/mol | –
258.1 K | 203.04 ± 4.1 J/K/mol | 201.78 ± 4 J/K/mol and 201.57 ± 4 J/K/mol
260.2 K | 205.33 ± 4.1 J/K/mol | –
262.2 K | 206.4 ± 4.1 J/K/mol | –
264.2 K | 207.59 ± 4.2 J/K/mol | –
266.2 K | 208.79 ± 4.2 J/K/mol | –
268.2 K | 209.43 ± 4.2 J/K/mol | –
268.3 K | – | 206.1 ± 4.1 J/K/mol and 204.8 ± 4.1 J/K/mol
270.2 K | 210.44 ± 4.2 J/K/mol | –
272.2 K | 211.82 ± 4.2 J/K/mol | –
274.3 K | 212.04 ± 4.2 J/K/mol | –
276.3 K | 212.05 ± 4.2 J/K/mol | –
278.3 K | 212.41 ± 4.2 J/K/mol | –
278.5 K | – | 208.78 ± 4.2 J/K/mol and 208.32 ± 4.2 J/K/mol
280.3 K | 212.81 ± 4.3 J/K/mol | –
282.3 K | 212.94 ± 4.3 J/K/mol | –
284.3 K | 213.33 ± 4.3 J/K/mol | –
286.3 K | 213.1 ± 4.3 J/K/mol | –
288.3 K | 213.9 ± 4.3 J/K/mol | –
288.7 K | – | 211.87 ± 4.2 J/K/mol and 212.56 ± 4.2 J/K/mol
290.4 K | 214.19 ± 4.3 J/K/mol | –
292.4 K | 214.81 ± 4.3 J/K/mol | –
294.4 K | 215.93 ± 4.3 J/K/mol | –
296.4 K | 216.6 ± 4.3 J/K/mol | –
298.4 K | 219.18 ± 4.4 J/K/mol | –
298.9 K | – | 216.24 ± 4.3 J/K/mol [middle of 10 runs]
300.4 K | 218.65 ± 4.4 J/K/mol | –
309.1 K | – | 220.12 ± 4.4 J/K/mol [middle of 11 runs]
319.4 K | – | 223.23 ± 4.5 J/K/mol [middle of 9 runs]
329.6 K | – | 225.99 ± 4.5 J/K/mol [middle of 11 runs]
339.8 K | – | 228.99 ± 4.6 J/K/mol [middle of 10 runs]
350 K | – | 230.93 ± 4.6 J/K/mol [middle of 11 runs]

Conditions | mass density [kg/m3]
[2] | 5206 ± 9
